Measured values published in patent publication US8946301B2, “Targeting of T-lymphocytes to treat amyotrophic lateral sclerosis” (ALS Therapy Development Institute, priority 2011, dated 2015).
Entries after “also recorded” stand apart in the source; their conditions may differ. Read-outs that look alike come from different tables or passages of the source.

Assays:
[1] = Pharmacokinetic profile of fingolimod in plasma and spinal cord of SOD1 mice; assay type: in vivo; conditions: G93A-SOD1 transgenic, mouse, male SOD1 mice, single IP bolus 6.7 mg/kg
Method: FIG. 1A is a chart showing the plasma pharmacokinetic profile for fingolimod in male SOD1 mice after a single IP bolus 6.7 mg/kg.
FIG. 1B is a chart showing the spinal cord pharmacokinetic profile for fingolimod in male SOD1 mice after a single IP bolus 6.7 mg/kg.
The pharmacokinetic study provided reagent distribution and elimination parameters in order to guide future in vivo studies. […] Because of the longer than usual half-life of fingolimod, the time points for PK harvest extended beyond the typical 9 point small molecule PK study executed at ALS Therapy Development Institute (ALSTDI, Cambridge, Mass.). Time points included 0, 0.083 hours, 0.25 hours, 0.5 hours, 0.75 hours, 1 hour, 2 hours, 4 hours, 6 hours, 8 hours, 12 hours, 24 hours, 48 hours, 72 hours, and 96 hours.
G93A-SOD1 transgenic mice (shortened to “SOD1 mice”) are mutant for superoxide dismutase 1 (SOD1) and are used as a disease model because of the phenotypic and pathologic resemblance to sporadic and familial human ALS. The SOD1 mice overexpress the superoxide dismutase, CCS, to develop an accelerated disease course that is associated with enhanced mitochondrial pathology and increased mitochondrial localization of mutant SOD1. The results of the fingolimod concentration studies were consistent with published reports for fingolimod in other tissues and models. Tissues analyzed included plasma (FIG. 1A) and spinal cord (FIG. 1B). Fingolimod treated animals were then divided into two groups using two separate doping regimens: • Low Dose Fingolimod Group: IP Load 0.44 mg/kg, Maintenance 0.32 mg/kg every 7 days (q7d), and • High Dose Fingolimod Group: IP Load 2.5 mg/kg, Maintenance 1.8 mg/kg q7d.

CD8+ lymphocytes = assay: FACS analysis of circulating CD8+ lymphocytes in whole blood of SOD1 mice; assay type: in vivo, mouse; conditions: for CD8+ cells in whole blood: 4 hours after third dose, control approximately 5%
Method: FIG. 3A is a fluorescent activated cell sorting (FACS) analysis showing the reduction of CD8+ lymphocytes in the circulation of male SOD1 mice that results from fingolimod treatment. A high dose of fingolimod (IP Loading Dose 2.5 mg/kg, Maintenance Dose 1.8 mg/kg q7d), a low dose of fingolimod (IP Loading Dose 0.44 mg/kg, Maintenance Dose 0.32 mg/kg) and a vehicle control group were tested over 14 days. Tissues were harvested 4 hours after the third dose. This time point was selected to best characterize the behavior of lymphocytes when circulating levels of the drug were near peak.
(§1) The following dosage regimen was used to determine the dose dependent effects of fingolimod in SOD1 mice: • Cohorts: • 1) SOD1 Fingolimod Treated “High Dose” (Load 2.5 mg/kg, 1.8 mg/kg Oral q7d) • 4 hour post final dose harvest • 7 day post final dose harvest • 2) SOD1 Fingolimod Treated “Low Dose” (Load 0.44 mg/kg, 0.32 mg/kg Oral q7d) • 4 hour post final dose harvest • 7 day post final dose harvest • 3) SOD1 Vehicle Control • 4 hour post final dose harvest • 7 day post final dose harvest
(§2) The predicted plasma fingolimod load for both the high dose and the low dose regimes were determined, see FIGS. 2A and 2B. Tissues were harvested 4 hours after the third fingolimod dose. This time point was selected to best characterize the behavior of lymphocytes in animals treated with fingolimod when circulating levels of the drug are near peak concentration.

CD4+ lymphocytes = assay: FACS analysis of circulating CD4+ lymphocytes in whole blood of SOD1 mice; assay type: in vivo, mouse; conditions: for CD4+ cells in whole blood: 4 hours after third dose, control approximately 12%
Method: FIG. 3B is a FACS analysis showing the reduction of CD4+ lymphocytes in the circulation of male SOD1 mice that received fingolimod treatment. Dosing of fingolimod and time points were the same as in FIG. 3A.
as §1, §2

CD45R positive cells = assay: Circulating CD45R positive cells in whole blood of SOD1 mice; assay type: in vivo, mouse; conditions: SOD1 animals, high and low dose groups
Method: as §1, §2

[2] = tested on: lymphocytes in the spleen; assay: Lymphocyte cell counts in spleen by FACS; assay type: in vivo, mouse; conditions: vs untreated SOD1
Method: FIG. 5 is a graph showing cell counts in spleens of animals. SOD1 animals received a loading dose of 2.5 mg/kg fingolimod orally, then oral 1.8 mg/kg once weekly for 3 weeks. Lymphocyte counts were measured via FACS for various cell surface antigens in the spleen.
Lymphocytes were also measured in the spleens of SOD1 fingolimod treated mice and untreated SOD1 mice. After sacrifice, spleens were harvested from each animal and subjected to fluorescent activated cell sorting for each of the cell surface antigens: CD11b, CD28, CD3, CD4, CD86, […], and LY6G.

[3] = tested on: lymphocytes, dendritic cells, regulatory T cells; conditions: cited from earlier work
[4] = SOD1 animals, high and low dose groups
[5] = high dose (load 2.5 mg/kg, 1.8 mg/kg q7d)
[6] = low dose (load 0.44 mg/kg, 0.32 mg/kg q7d)
[7] = whole blood, vs vehicle control

Structure (SMILES): CCCCCCCCc1ccc(CCC(N)(CO)CO)cc1 [fingolimod, 2-amino-2-(4-octylphenethyl)propane-1,3-diol]
- Cmax ([1]; plasma, read-out: plasma Cmax): 185 ng/mL
- half-life ([1]; plasma, read-out: plasma half-life (converted)): 31.4 h
- Cmax ([1]; spinal cord, read-out: spinal cord Cmax): 630 ng/mL
- half-life ([1]; spinal cord, read-out: spinal cord half-life (converted)): 89.2 h
- circulating CD8 positive cells in whole / peripheral blood (in words) (CD8+ lymphocytes; [4]): fewer; also recorded: transiently depletes
- CD8+ cells in whole blood (CD8+ lymphocytes; [5]): less than 2%
- CD8+ cells in whole blood (CD8+ lymphocytes; [6]): less than 2%
- reduction in CD8+ cells (CD8+ lymphocytes; [7]): > 66%
- reduction in CD8+ cells (fold) (CD8+ lymphocytes; [7]): over three-fold
- circulating CD4 positive cells in whole / peripheral blood (in words) (CD4+ lymphocytes; [4]): fewer; also recorded: transiently depletes
- CD4+ cells in whole blood (CD4+ lymphocytes; [5]): approximately 5%
- CD4+ cells in whole blood (CD4+ lymphocytes; [6]): approximately 5%
- reduction in CD4+ cells (CD4+ lymphocytes; [7]): at least 50%
- reduction in CD4+ cells (fold) (CD4+ lymphocytes; [7]): over two-fold
- circulating CD45R positive cells in whole blood (in words) (CD45R positive cells): fewer
- lymphocyte count, CD11b ([2]; load 2.5 mg/kg oral then 1.8 mg/kg once weekly for 3 weeks): decreased lymphocyte count
- lymphocyte count, CD3 ([2]; same regimen): decreased lymphocyte count
- lymphocyte count, CD4 ([2]; same regimen): decreased lymphocyte count
- lymphocyte count, CD28 ([2]; same regimen): decreased lymphocyte count
- lymphocyte count, CD86 ([2]; same regimen): decreased lymphocyte count
- lymphocyte count, CTLA34 ([2]; same regimen): decreased lymphocyte count
- lymphocyte count, LY6G ([2]; same regimen): decreased lymphocyte count
- circulating dendritic cells ([3]; Lan 2005, 2008): large increase
- effect on lymphocyte population ([3]; Tsunemi 2010 and Zemann 2006): lymphopenia
- regulatory T cells ([3]; Zhang et al. 2009): increase
